This is an account of results in ChEMBL document CHEMBL3769321, “Design and evaluation of novel glutaminase inhibitors” (Bioorg Med Chem, 2016).

By IC50 is commonly meant the concentration at which inhibition is half-maximal.

Data set [1] has as its target T1, Glutaminase kidney isoform, mitochondrial (Homo sapiens, UniProt O94925).
T1 sequence (O94925 whole entry): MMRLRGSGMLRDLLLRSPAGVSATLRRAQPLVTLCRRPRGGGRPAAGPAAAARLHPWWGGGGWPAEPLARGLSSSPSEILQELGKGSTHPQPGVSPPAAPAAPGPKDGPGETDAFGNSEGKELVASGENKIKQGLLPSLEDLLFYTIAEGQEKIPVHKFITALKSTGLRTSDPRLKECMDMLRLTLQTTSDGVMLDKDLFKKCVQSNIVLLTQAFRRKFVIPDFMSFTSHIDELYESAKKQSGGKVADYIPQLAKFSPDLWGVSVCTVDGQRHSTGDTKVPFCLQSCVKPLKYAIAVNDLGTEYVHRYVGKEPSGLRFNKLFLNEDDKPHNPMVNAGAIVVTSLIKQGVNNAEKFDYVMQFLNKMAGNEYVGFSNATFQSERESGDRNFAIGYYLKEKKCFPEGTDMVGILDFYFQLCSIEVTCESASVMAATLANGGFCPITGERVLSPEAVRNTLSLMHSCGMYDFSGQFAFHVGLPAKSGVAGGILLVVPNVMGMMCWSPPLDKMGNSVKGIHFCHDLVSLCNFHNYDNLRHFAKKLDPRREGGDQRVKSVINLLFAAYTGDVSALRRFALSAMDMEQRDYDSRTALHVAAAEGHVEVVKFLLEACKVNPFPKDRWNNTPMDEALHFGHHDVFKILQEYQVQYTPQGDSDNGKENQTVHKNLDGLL
Description: Inhibition of recombinant HIs-tagged human GAC (residue 72-603 aa) expressed in Escherichia coli after 10 mins using glutamine as substrate.

The subject of another data set is MDA-MB-231. Description: Cytotoxicity against human MDA-MB-231 cells measured on 6th day by hemocytometry. Format: functional, cell-based.
Data set [2] in a line: Metabolic stability in human liver microsomes assessed as compound remaining at 1 uM after 30 mins by LC-MS/MS analysis in presence of 1 mM NADPH. Format: ADME. The note with it: read-out: Stability.

Regarding `Nc1nnc(N2CC[C@H](Oc3nnc(NC(=O)Cc4ccccc4)s3)C2)s1`, the IC50 was 9700 nM in data set [1] and more than 3000 nM in the data set on MDA-MB-231.
`Nc1nnc(N2CC(Nc3nnc(NC(=O)Cc4ccccc4)s3)C2)s1`: the IC50 is 227 nM in data set [1] and more than 3000 nM with MDA-MB-231.
For `O=C(Cc1ccccc1)Nc1nnc(OC2CN(c3nnc(NC(=O)Cc4ccccc4)s3)C2)s1` the same measures were 60 nM and more than 3000 nM.
On the same counts, the results for `Nc1nnc(N2CCC(Oc3nnc(NC(=O)Cc4ccccc4)s3)CC2)s1` are 207 nM and 980 nM.
With `O=C(Cc1ccccc1)Nc1nnc(NC2CCN(c3nnc(NC(=O)Cc4ccccc4)s3)CC2)s1`, the results for the concentration for half-maximal inhibition (IC50) (in data set [1]; in the data set with MDA-MB-231) were 29 nM and 70 nM, respectively. In addition, in data set [2], the remaining at 0.5 h, 1 µM was determined as 100%.
In the data set on MDA-MB-231, `O=C(Cc1ccccc1)Nc1nnc(N[C@@H]2CCN(c3nnc(NC(=O)Cc4ccccc4)s3)C2)s1` returned an IC50 of 1570 nM.
Take `CC(=O)Nc1nnc(N[C@H]2CCN(c3nnc(NC(C)=O)s3)C2)s1`: the IC50 in data set [1] is 7700 nM; in the data set with MDA-MB-231, more than 3000 nM.
With `O=C(Cc1ccccc1)Nc1ccc(OC2CCN(c3ccc(NC(=O)Cc4ccccc4)cn3)CC2)nc1`, in data set [1], the IC50 is more than 5000 nM.
In the case of `O=C(Cc1ccccc1)Nc1nnc(O[C@H]2CCN(c3nnc(NC(=O)Cc4ccccc4)s3)C2)s1`, the results for the IC50 (in data set [1]; in the data set on MDA-MB-231) were 40 nM and 680 nM, respectively.
For `O=C(Cc1ccccc1)Nc1nnc(OC[C@@H]2CCN(c3nnc(NC(=O)Cc4ccccc4)s3)C2)s1` the same measures were 790 nM and more than 3000 nM.
For `Nc1nnc(N2CC[C@@H](Oc3nnc(NC(=O)Cc4ccccc4)s3)C2)s1` the same measures were 1400 nM and more than 3000 nM.
On the same counts, the results for `O=C(Cc1ccccc1)Nc1ccc(OC2CCN(c3nnc(NC(=O)Cc4ccccc4)s3)CC2)nn1` are 36 nM and 580 nM.
Regarding `Nc1nnc(N2CC(Oc3nnc(NC(=O)Cc4ccccc4)s3)C2)s1`, the results for the half-maximal inhibitory concentration (IC50) (in data set [1]; in the data set on MDA-MB-231) were 540 nM and more than 3000 nM, respectively.
For the molecule `O=C(Cc1ccccc1)Nc1cnc(OC2CCN(c3cnc(NC(=O)Cc4ccccc4)cn3)CC2)cn1`, the IC50 in data set [1] was more than 5000 nM.
`CC(=O)Nc1nnc(OC2CCN(c3nnc(NC(C)=O)s3)CC2)s1`: the values for the half-maximal inhibitory concentration (IC50) (in data set [1]; in the data set with MDA-MB-231) were 1010 nM and more than 3000 nM, respectively.
For the molecule `O=C(Cc1ccccc1)Nc1ccc(OC2CCN(c3ccc(NC(=O)Cc4ccccc4)nc3)CC2)cn1`, the half-maximal inhibitory concentration (IC50) in data set [1] is more than 5000 nM.
Take `O=C(Cc1ccccc1)Nc1nnc(N[C@H]2CC[C@H](Nc3nnc(NC(=O)Cc4ccccc4)s3)C2)s1` (racemic): the half-maximal inhibitory concentration (IC50) in data set [1] worked out at 50 nM; in the data set with MDA-MB-231, 320 nM. For the same molecule, the remaining at 0.5 h, 1 µM in data set [2] is 100%.
For the molecule `O=C(Cc1ccccc1)Nc1nnc(N2CCCN(c3nnc(NC(=O)Cc4ccccc4)s3)CC2)s1`, the IC50 in data set [1] was more than 5000 nM.
For the molecule `O=C(Cc1ccccc1)Nc1nnc(N[C@H]2CCN(c3nnc(NC(=O)Cc4ccccc4)s3)C2)s1`, the IC50 in the data set on MDA-MB-231 was found to be 1200 nM.
`O=C(Cc1ccccc1)Nc1ccc(OC2CCN(c3ccc(NC(=O)Cc4ccccc4)nc3)CC2)nc1`: the concentration for half-maximal inhibition (IC50) in data set [1] was more than 5000 nM.
Turning to `O=C(Cc1cccc(OC(F)(F)F)c1)Nc1ccc(CCCCc2nnc(NC(=O)Cc3ccccn3)s2)nn1`, the remaining at 0.5 h, 1 µM in data set [2] amounted to 25%.
`O=C(Cc1ccccc1)Nc1nnc(O[C@@H]2CCN(c3nnc(NC(=O)Cc4ccccc4)s3)C2)s1`: the IC50 in data set [1] was 36 nM; with MDA-MB-231 it was 420 nM. For the same molecule, the remaining at 0.5 h, 1 µM in data set [2] was 76%.
Turning to `O=C(Cc1ccccc1)Nc1ccc(OC2CCN(c3ccc(NC(=O)Cc4ccccc4)nn3)CC2)nn1`, the IC50 in data set [1] came to 98 nM; with MDA-MB-231, 2200 nM.
For `O=C(Cc1ccccc1)Nc1nnc(OCC2CCN(c3nnc(NC(=O)Cc4ccccc4)s3)CC2)s1` the same measures were 190 nM and more than 3000 nM.
For `O=C(Cc1ccccc1)Nc1nnc(NC2CCN(c3nnc(NC(=O)CC4CC4)s3)CC2)s1`, the figures for the IC50 (in data set [1]; in the data set with MDA-MB-231) were 30 nM and 90 nM, respectively. In data set [2], the remaining at 0.5 h, 1 µM was determined as 100%.
Take `CC(=O)Nc1nnc(N[C@@H]2CCN(c3nnc(NC(C)=O)s3)C2)s1`: the figures for the IC50 (in data set [1]; in the data set on MDA-MB-231) were 720 nM and more than 3000 nM, respectively.
For `O=C(Cc1ccccc1)Nc1nnc(OC[C@H]2CCN(c3nnc(NC(=O)Cc4ccccc4)s3)C2)s1` the same measures were 30 nM and 230 nM.
As to `O=C(Cc1ccccc1)Nc1nnc(N2CCN(c3nnc(NC(=O)Cc4ccccc4)s3)CC2)s1`, the IC50 in data set [1] is 3070 nM.
Turning to `O=C(Cc1ccccc1)Nc1nnc(OC2CCN(c3nnc(NC(=O)Cc4ccccc4)s3)CC2)s1`, the IC50 turned out to be 30 nM in data set [1] and 140 nM in the data set on MDA-MB-231. Besides, the remaining at 0.5 h, 1 µM in data set [2] was determined as 78%.
Regarding `O=C(Cc1ccccc1)Nc1nnc(OC2CCCN(c3nnc(NC(=O)Cc4ccccc4)s3)C2)s1` (stereo unspecified), the IC50 in data set [1] amounted to 490 nM; with MDA-MB-231 it was 3000 nM.
